# From patent publication US20240425499A1, “TYRO3 INHIBITORS” (HALIA THERAPEUTICS, INC., priority 2021, published 2024)
# Molecular target: recombinant human TYRO3 (Homo sapiens (Human), UniProt Q06418)
# Assay: TYRO3 enzymatic assay (radiometric [32P]-ATP, Poly(Glu,Tyr) substrate)
# Format: biochemical
# Settings: recombinant human TYRO3, [32P]-ATP
# Procedure: Poly(Glu, Tyr) sodium salt (Glu:Tyr (4:1), quality level 200, molecular weight 5,000-20,000, obtained from Sigma Aldrich, catalogue #P7244, assay concentration 0.20 mg/mL) and recombinant human TYRO3 (obtained from ThermoFisher Scientific, catalogue #PV3828, assay concentration 2 nM) were mixed in assay buffer (20 mM Hepes pH 7.5, 10 mM MgCl2, 1 mM EGTA, 0.02% Brij35, 0.02 mg/ml BSA, 0.1 mM Na3VO4, 2 mM DTT, 1% DMSO, with added MnCl2 at a final concentration of 2 mM). Compounds of interest (in DMSO, serial 3-fold dilution from 10 μM to 0.5 nM) or control (1% DMSO) were dispensed into the kinase reaction mixture by Acoustic technology (Echo550; nanoliter range). After incubation at room temperature for 20 minutes, the kinase reaction was initiated by addition of [^32P]-ATP (Specific activity 10 μCi/μl) and the mixture was incubated at room temperature for 2 hours. The reaction was then stopped by spotting the reaction mixture on strips of phosphocellulose P81 paper. Following washing, the radioactivity of the P81 paper was measured and kinase activity data were expressed as the percent remaining kinase activity in test samples compared to vehicle (dimethyl sulfoxide) reactions. IC50 values and curve fits were obtained using Prism (GraphPad Software).
# recombinant human TYRO3, sequence (Q06418 41-890): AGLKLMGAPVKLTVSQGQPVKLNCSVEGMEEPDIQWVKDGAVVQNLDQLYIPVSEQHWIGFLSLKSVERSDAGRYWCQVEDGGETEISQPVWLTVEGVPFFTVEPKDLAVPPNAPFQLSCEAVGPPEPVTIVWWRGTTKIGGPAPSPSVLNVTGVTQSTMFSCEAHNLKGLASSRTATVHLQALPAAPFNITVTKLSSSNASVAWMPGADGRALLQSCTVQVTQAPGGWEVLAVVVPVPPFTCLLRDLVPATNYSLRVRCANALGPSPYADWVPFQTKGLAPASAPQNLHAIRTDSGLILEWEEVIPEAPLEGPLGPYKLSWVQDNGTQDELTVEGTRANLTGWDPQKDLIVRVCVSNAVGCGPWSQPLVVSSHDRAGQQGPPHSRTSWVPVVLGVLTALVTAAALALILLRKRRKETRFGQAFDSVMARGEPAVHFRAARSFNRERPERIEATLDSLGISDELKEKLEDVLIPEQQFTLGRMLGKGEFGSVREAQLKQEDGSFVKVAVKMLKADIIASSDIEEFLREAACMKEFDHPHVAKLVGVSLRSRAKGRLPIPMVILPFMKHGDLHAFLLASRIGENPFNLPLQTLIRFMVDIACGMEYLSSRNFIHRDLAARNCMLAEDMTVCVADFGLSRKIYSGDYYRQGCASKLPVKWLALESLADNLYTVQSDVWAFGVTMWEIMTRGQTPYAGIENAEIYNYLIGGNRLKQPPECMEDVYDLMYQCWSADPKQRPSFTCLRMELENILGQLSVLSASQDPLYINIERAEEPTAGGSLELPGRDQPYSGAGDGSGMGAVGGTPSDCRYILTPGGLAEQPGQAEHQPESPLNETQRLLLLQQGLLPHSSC
row,Structure (SMILES),IC50
1,"COc1ccc(-c2c[nH]c3ncc(-c4ccc(CN5CCCC(O)C5)cc4)cc23)cn1 (single isomer, unassigned; enantiomer 1) [compound 26, 1-(4-(3-(6-methoxypyridin-3-yl)-1H-pyrrolo[2,3-b]pyridin-5-yl)benzyl)piperidin-3-ol Enantiomer 1]",< 51 nM
2,"COc1ccc(-c2c[nH]c3ncc(-c4ccc(CN5CCCC(OC)C5)cc4)cc23)cn1 (single isomer, unassigned; enantiomer 1) [compound 38, 5-(4-((3-methoxypiperidin-1-yl)methyl)phenyl)-3-(6-methoxypyridin-3-yl)-1H-pyrrolo[2,3-b]pyridine Enantiomer 1]",151 to 500 nM
3,"OCc1[nH]c2ncc(-c3ccc(CN4CCCC(O)C4)cc3)cc2c1-c1cccc(F)c1 (single isomer, unassigned; enantiomer 1) [compound 88, 1-(4-(3-(3-fluorophenyl)-2-(hydroxymethyl)-1H-pyrrolo[2,3-b]pyridin-5-yl)benzyl)piperidin-3-ol Enantiomer 1]",151 to 500 nM
4,"COc1ccc(-c2c[nH]c3ncc(-c4ccc(CN5CCCC(O)C5)cc4)cc23)cn1 (single isomer, unassigned; enantiomer 2) [compound 27, 1-(4-(3-(6-methoxypyridin-3-yl)-1H-pyrrolo[2,3-b]pyridin-5-yl)benzyl)piperidin-3-ol Enantiomer 2]",51 to 150 nM
5,"OCc1[nH]c2ncc(-c3ccc(CN4CCCC(O)C4)cc3)cc2c1-c1cccc(F)c1 (single isomer, unassigned; enantiomer 2) [compound 89, 1-(4-(3-(3-fluorophenyl)-2-(hydroxymethyl)-1H-pyrrolo[2,3-b]pyridin-5-yl)benzyl)piperidin-3-ol Enantiomer 2]",51 to 150 nM
6,"Cc1ccc(-c2c[nH]c3ncc(-c4ccc(CN5CCCC(O)C5)cc4)cc23)cc1 (stereo not drawn) [compound 1, 1-(4-(3-(p-tolyl)-1H-pyrrolo[2,3-b]pyridin-5-yl)benzyl)piperidin-3-ol]",51 to 150 nM
7,"OC1CCCN(Cc2ccc(-c3cnc4[nH]cc(-c5ccc(F)cc5)c4c3)cc2)C1 (stereo not drawn) [compound 3, 1-(4-(3-(4-fluorophenyl)-1H-pyrrolo[2,3-b]pyridin-5-yl)benzyl)piperidin-3-ol]",51 to 150 nM
8,"CC1(O)CCCN(Cc2ccc(-c3cnc4[nH]cc(-c5cccc(F)c5)c4c3)cc2)C1 (stereo not drawn) [compound 5, 1-(4-(3-(3-fluorophenyl)-1H-pyrrolo[2,3-b]pyridin-5-yl)benzyl)-3-methylpiperidin-3-ol]",51 to 150 nM
9,"Fc1cccc(-c2c[nH]c3ncc(-c4ccc(CN5C[C@@H]6C[C@H]5CO6)cc4)cc23)c1 [compound 6, (1S,4S)-5-(4-(3-(3-fluorophenyl)-1H-pyrrolo[2,3-b]pyridin-5-yl)benzyl)-2-oxa-5-azabicyclo[2.2.1]heptane]",51 to 150 nM
10,"OC1CCCN(Cc2ccc(-c3cnc4[nH]cc(-c5ccc(Cl)cc5)c4c3)cc2)C1 (stereo not drawn) [compound 7, 1-(4-(3-(4-chlorophenyl)-1H-pyrrolo[2,3-b]pyridin-5-yl)benzyl)piperidin-3-ol]",51 to 150 nM
11,"OC1CCCN(Cc2ccc(-c3cnc4[nH]cc(-c5cccc(Cl)c5)c4c3)cc2)C1 (stereo not drawn) [compound 8, 1-(4-(3-(3-chlorophenyl)-1H-pyrrolo[2,3-b]pyridin-5-yl)benzyl)piperidin-3-ol]",51 to 150 nM
12,"OC1CCCN(Cc2ccc(-c3cnc4[nH]cc(-c5ccc(C(F)(F)F)cc5)c4c3)cc2)C1 (stereo not drawn) [compound 10, 1-(4-(3-(4-(trifluoromethyl)phenyl)-1H-pyrrolo[2,3-b]pyridin-5-yl)benzyl)piperidin-3-ol]",151 to 500 nM
13,"OC1CCCN(Cc2ccc(-c3cnc4[nH]cc(-c5cccc(C(F)(F)F)c5)c4c3)cc2)C1 (stereo not drawn) [compound 11, 1-(4-(3-(3-(trifluoromethyl)phenyl)-1H-pyrrolo[2,3-b]pyridin-5-yl)benzyl)piperidin-3-ol]",51 to 150 nM
14,"CC(C)Oc1ccc(-c2c[nH]c3ncc(-c4ccc(CN5CCCC(O)C5)cc4)cc23)cc1C#N (stereo not drawn) [compound 19, 5-(5-(4-((3-hydroxypiperidin-1-yl)methyl)phenyl)-1H-pyrrolo[2,3-b]pyridin-3-yl)-2-isopropoxybenzonitrile]",51 to 150 nM
15,"Cc1ccc(-c2c[nH]c3ncc(-c4ccc(CN5CCCC(O)C5)cc4)cc23)cn1 (stereo not drawn) [compound 20, 1-(4-(3-(6-methylpyridin-3-yl)-1H-pyrrolo[2,3-b]pyridin-5-yl)benzyl)piperidin-3-ol]",51 to 150 nM
16,"OC1CCCN(Cc2ccc(-c3cnc4[nH]cc(-c5ccc(F)nc5)c4c3)cc2)C1 (stereo not drawn) [compound 21, 1-(4-(3-(6-fluoropyridin-3-yl)-1H-pyrrolo[2,3-b]pyridin-5-yl)benzyl)piperidin-3-ol]",51 to 150 nM
17,"OC1CCCN(Cc2ccc(-c3cnc4[nH]cc(-c5cncc(F)c5)c4c3)cc2)C1 (stereo not drawn) [compound 22, 1-(4-(3-(5-fluoropyridin-3-yl)-1H-pyrrolo[2,3-b]pyridin-5-yl)benzyl)piperidin-3-ol]",51 to 150 nM

row,Structure (SMILES),IC50
1,"OC1CCCN(Cc2ccc(-c3cnc4[nH]cc(-c5ccc(C(F)(F)F)nc5)c4c3)cc2)C1 (stereo not drawn) [compound 24, 1-(4-(3-(6-(trifluoromethyl)pyridin-3-yl)-1H-pyrrolo[2,3-b]pyridin-5-yl)benzyl)piperidin-3-ol]",51 to 150 nM
2,"COc1ccc(-c2c[nH]c3ncc(-c4ccc(CN5CCC(O)CC5)cc4)cc23)cn1 [compound 28, 1-(4-(3-(6-methoxypyridin-3-yl)-1H-pyrrolo[2,3-b]pyridin-5-yl)benzyl)piperidin-4-ol]",151 to 500 nM
3,"COc1ccc(-c2c[nH]c3ncc(-c4ccc(CN5CCC(O)C5)cc4)cc23)cn1 (stereo not drawn) [compound 29, 1-(4-(3-(6-methoxypyridin-3-yl)-1H-pyrrolo[2,3-b]pyridin-5-yl)benzyl)pyrrolidin-3-ol]",51 to 150 nM
4,"COc1ccc(-c2c[nH]c3ncc(-c4ccc(CN5CCCC(C)(O)C5)cc4)cc23)cn1 (stereo not drawn) [compound 30, 1-(4-(3-(6-methoxypyridin-3-yl)-1H-pyrrolo[2,3-b]pyridin-5-yl)benzyl)-3-methylpiperidin-3-ol]",51 to 150 nM
5,"COc1ccc(-c2c[nH]c3ncc(-c4ccc(CN5CCCC(CO)C5)cc4)cc23)cn1 (stereo not drawn) [compound 32, (1-(4-(3-(6-methoxypyridin-3-yl)-1H-pyrrolo[2,3-b]pyridin-5-yl)benzyl)piperidin-3-yl)methanol]",51 to 150 nM
6,"COc1ccc(-c2c[nH]c3ncc(-c4ccc(CN5CCC(OC)CC5)cc4)cc23)cn1 [compound 34, 5-(4-((4-methoxypiperidin-1-yl)methyl)phenyl)-3-(6-methoxypyridin-3-yl)-1H-pyrrolo[2,3-b]pyridine]",51 to 150 nM
7,"COc1ccc(-c2c[nH]c3ncc(-c4ccc(CN5CC(OC)C5)cc4)cc23)cn1 [compound 35, 5-(4-((3-methoxyazetidin-1-yl)methyl)phenyl)-3-(6-methoxypyridin-3-yl)-1H-pyrrolo[2,3-b]pyridine]",51 to 150 nM
8,"CCOC1CN(Cc2ccc(-c3cnc4[nH]cc(-c5ccc(OC)nc5)c4c3)cc2)C1 [compound 36, 5-(4-((3-ethoxyazetidin-1-yl)methyl)phenyl)-3-(6-methoxypyridin-3-yl)-1H-pyrrolo[2,3-b]pyridine]",151 to 500 nM
9,"COc1ccc(-c2c[nH]c3ncc(-c4ccc(CN5CCCC(F)C5)cc4)cc23)cn1 (stereo not drawn) [compound 40, 5-(4-((3-fluoropiperidin-1-yl)methyl)phenyl)-3-(6-methoxypyridin-3-yl)-1H-pyrrolo[2,3-b]pyridine]",151 to 500 nM
10,"COc1ccc(-c2c[nH]c3ncc(-c4ccc(CN5CCC6(CC5)CN(C)C6)cc4)cc23)cn1 [compound 42, 7-(4-(3-(6-methoxypyridin-3-yl)-1H-pyrrolo[2,3-b]pyridin-5-yl)benzyl)-2-methyl-2,7-diazaspiro[3.5]nonane]",151 to 500 nM
11,"OCc1ccc(-c2c[nH]c3ncc(-c4ccc(CN5CCCC(O)C5)cc4)cc23)cn1 (stereo not drawn) [compound 43, 1-(4-(3-(6-(hydroxymethyl)pyridin-3-yl)-1H-pyrrolo[2,3-b]pyridin-5-yl)benzyl)piperidin-3-ol]",51 to 150 nM
12,"OC1CCCN(Cc2ccc(-c3cnc4[nH]c(Cl)c(-c5cccc(F)c5)c4c3)cc2)C1 (stereo not drawn) [compound 54, 1-(4-(2-chloro-3-(3-fluorophenyl)-1H-pyrrolo[2,3-b]pyridin-5-yl)benzyl)piperidin-3-ol]",51 to 150 nM
13,"OC1CCCN(Cc2ccc(-c3cnc4[nH]c(Cl)c(-c5cccc(C(F)F)c5)c4c3)cc2)C1 (stereo not drawn) [compound 55, 1-(4-(2-chloro-3-(3-(difluoromethyl)phenyl)-1H-pyrrolo[2,3-b]pyridin-5-yl)benzyl)piperidin-3-ol]",151 to 500 nM
14,"COc1ccc(-c2c(C)[nH]c3ncc(-c4ccc(CN5CCCC(O)C5)cc4)cc23)cn1 (stereo not drawn) [compound 62, 1-(4-(3-(6-methoxypyridin-3-yl)-2-methyl-1H-pyrrolo[2,3-b]pyridin-5-yl)benzyl)piperidin-3-ol]",51 to 150 nM
15,"COCc1[nH]c2ncc(-c3ccc(CN4CCCC(O)C4)cc3)cc2c1-c1ccc(F)nc1 (stereo not drawn) [compound 64, 1-(4-(3-(6-fluoropyridin-3-yl)-2-(methoxymethyl)-1H-pyrrolo[2,3-b]pyridin-5-yl)benzyl)piperidin-3-ol]",51 to 150 nM
16,"OC1CCCN(Cc2ccc(-c3cnc4[nH]c(C(F)F)c(-c5cccc(F)c5)c4c3)cc2)C1 (stereo not drawn) [compound 68, 1-(4-(2-(difluoromethyl)-3-(3-fluorophenyl)-1H-pyrrolo[2,3-b]pyridin-5-yl)benzyl)piperidin-3-ol]",51 to 150 nM
